# Test results: ChEMBL document CHEMBL5370631, “Emopamil-Binding Protein Inhibitors for Treating Multiple Sclerosis” (ACS Med Chem Lett, 2023)
# Target: 3-beta-hydroxysteroid-Delta(8),Delta(7)-isomerase (Homo sapiens, UniProt Q15125)
# Experiment: Inhibition of human EBP isolated from HEK293T cells assessed as reduction in dihydrolathosterol-d5 formation using zymosterol-d5 as substrate pre incubated for 30 mins followed by substrate addition and incubated at 37 degC for 4 hrs by LC-APCI MRM MS analysis
# Assay type: cell-free, HEK-293T
# 3-beta-hydroxysteroid-Delta(8),Delta(7)-isomerase, sequence (Q15125 whole entry): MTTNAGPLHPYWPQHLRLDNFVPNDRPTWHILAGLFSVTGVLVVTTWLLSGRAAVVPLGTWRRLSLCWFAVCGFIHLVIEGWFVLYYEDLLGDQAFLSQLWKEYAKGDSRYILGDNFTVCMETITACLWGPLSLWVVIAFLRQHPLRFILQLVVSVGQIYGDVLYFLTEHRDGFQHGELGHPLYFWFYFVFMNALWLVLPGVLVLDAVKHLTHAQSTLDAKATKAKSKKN
structure (smiles),measurement,value
CC1CCN([C@H]2C[C@H]3CC[C@@H](C2)N3S(=O)(=O)c2ccc(OC(F)F)cc2)CC1,IC50,< 50 nM
Cc1cc(S(=O)(=O)N2[C@@H]3CC[C@H]2C[C@@H](CN2CCOCC2)C3)n(C)n1,IC50,< 50 nM
O=S(=O)(c1ccc(OC(F)F)cc1)N1C2CCC1CC(NC1CCOCC1)C2 (stereo unspecified),IC50,< 50 nM
O=S(=O)(c1ccc(OC(F)F)cc1)N1[C@@H]2CC[C@H]1C[C@@H](NCC1(O)CCOCC1)C2,IC50,< 50 nM
O=S(=O)(c1ccc(OC(F)F)cc1)N1C2CCC1CC(NCC1CCOCC1)C2 (stereo unspecified),IC50,< 50 nM
CC12CC(NC3CC4CCC(C3)N4S(=O)(=O)c3ccc(OC(F)F)cc3)(CO1)C2 (stereo unspecified),IC50,< 50 nM
